These results are taken from paper PMC10892041, “Vanadium Complexes with Thioanilide Derivatives of Amino Acids: Inhibition of Human Phosphatases and Specificity in Various Cell Models of Metabolic Disturbances” (Pharmaceuticals, 2024).

Where two headings read alike, the source gives them in different places.

One series deals with T1, LAR (Homo sapiens, UniProt P10586).
T1 sequence (P10586 1352-1607 limits assumed): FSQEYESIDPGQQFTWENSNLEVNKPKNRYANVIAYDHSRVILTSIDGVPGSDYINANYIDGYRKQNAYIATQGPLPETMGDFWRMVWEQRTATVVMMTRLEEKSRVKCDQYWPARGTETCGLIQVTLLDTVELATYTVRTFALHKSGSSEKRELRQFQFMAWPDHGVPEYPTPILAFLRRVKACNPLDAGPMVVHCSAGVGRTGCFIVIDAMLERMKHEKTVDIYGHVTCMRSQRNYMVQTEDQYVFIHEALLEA
The series can be described thus: Inhibition of human recombinant tyrosine phosphatase LAR (DiFMUP fluorescence). Format: biochemical. Particulars: for Inhibition of LAR, percentage of inhibition of the control: 1 µM, control solvent only, SD did not exceed 6%. As to the method:
(§1) To determine the ability of the tested compounds for inhibition tyrosine phosphatases, human recombinant proteins were used (Sigma-Aldrich). The reactions were performed in black opaque 384-well microplates (PerkinElmer, Waltham, MA, USA). An equal volume of phosphatase solution in a reaction buffer (25 mM of 3-(N-morpholino)propanesulfonic acid (MOPS), 50 mM NaCl, 1 mM dithiothreitol (DTT), and 0.05% Tween-20 (pH 7.0)) was added to the solution of the tested compound on microplate. These solutions were dispensed using an automated injector. The following final concentrations of the tested phosphatases were used: PTP1B 50 ng/mL, SHP1 400 ng/mL, SHP2 50 ng/mL, LAR 5 ng/mL, and PTPRA 100 ng/mL. After 10 min, a solution of phosphate 6,8-difluoro-4-methyl (DiFMUP; Thermo Fisher Scientific) was added until its final concentration was 0.1 mM. Samples were incubated for 20 miN at 23 °C, and then the measurements of fluorescence intensity (excitation 355 and emission […]) were performed on a multifunctional plate reader POLARstar Omega (BMG Labtech, Ortenberg, Germany). Assays were performed in triplicate. For the screening assays, the final concentration of the tested compounds was 1 µM. The results were expressed as percent inhibition of untreated control (enzyme with vehicle only) for the screening tests. […] IC50 were calculated using GraphPad Prism version 6.0 software (GraphPad Software, Boston, MA, USA).

Another series deals with myocytes C2C12. The series can be described thus: Viability of myocytes C2C12 after 24 h incubation (resazurin-based reagent). The conditions noted are these: 50 µM. As to the method:
Simultaneously with glucose consumption tests, the viability of myocytes C2C12 was examined due to their prolonged 24 h incubation with vanadium complexes.
Prolonged incubation of the cells with vanadium complexes, as was the case during the study of the effect on glucose consumption, more closely corresponds to the actual conditions of clinical use, also allowing for the identification of possible cytotoxic effects. […] A Resazurin-based reagent is reduced proportionally to the metabolic activity of cells as a result of the transference of electrons from NADPH+H^+, the amount of which strictly depends on glucose metabolism.
(Resazurin is reduced to fluorescent resorufin, in cell work by metabolically active cells.)

The target in another series is T2, PTP1B (Homo sapiens, UniProt P18031).
T2 construct: purchased Sigma-Aldrich
T2 sequence (P18031 1-435): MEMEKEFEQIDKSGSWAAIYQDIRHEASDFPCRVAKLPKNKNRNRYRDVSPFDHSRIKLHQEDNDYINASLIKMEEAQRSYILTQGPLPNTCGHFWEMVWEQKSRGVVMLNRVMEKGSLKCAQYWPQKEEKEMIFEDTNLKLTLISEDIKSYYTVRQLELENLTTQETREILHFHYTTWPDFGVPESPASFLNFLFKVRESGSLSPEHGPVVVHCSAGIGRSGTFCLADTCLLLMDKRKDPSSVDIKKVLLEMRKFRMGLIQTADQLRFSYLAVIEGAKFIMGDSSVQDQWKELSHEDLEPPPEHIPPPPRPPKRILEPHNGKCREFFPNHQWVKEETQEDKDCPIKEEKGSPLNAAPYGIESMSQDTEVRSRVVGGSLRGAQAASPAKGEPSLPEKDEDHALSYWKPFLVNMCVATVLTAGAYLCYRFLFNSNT
The series can be described thus: Inhibition of human recombinant tyrosine phosphatase PTP1B (DiFMUP fluorescence). Format: biochemical. Particulars: for Inhibition of PTP1B, percentage of inhibition of the control: 1 µM, control solvent only, SD did not exceed 6%. As to the method: as §1

In the next series the target is T3, CDC25A (Homo sapiens, UniProt P30304).
T3 construct: purchased Sigma-Aldrich
T3 sequence (P30304 1-524): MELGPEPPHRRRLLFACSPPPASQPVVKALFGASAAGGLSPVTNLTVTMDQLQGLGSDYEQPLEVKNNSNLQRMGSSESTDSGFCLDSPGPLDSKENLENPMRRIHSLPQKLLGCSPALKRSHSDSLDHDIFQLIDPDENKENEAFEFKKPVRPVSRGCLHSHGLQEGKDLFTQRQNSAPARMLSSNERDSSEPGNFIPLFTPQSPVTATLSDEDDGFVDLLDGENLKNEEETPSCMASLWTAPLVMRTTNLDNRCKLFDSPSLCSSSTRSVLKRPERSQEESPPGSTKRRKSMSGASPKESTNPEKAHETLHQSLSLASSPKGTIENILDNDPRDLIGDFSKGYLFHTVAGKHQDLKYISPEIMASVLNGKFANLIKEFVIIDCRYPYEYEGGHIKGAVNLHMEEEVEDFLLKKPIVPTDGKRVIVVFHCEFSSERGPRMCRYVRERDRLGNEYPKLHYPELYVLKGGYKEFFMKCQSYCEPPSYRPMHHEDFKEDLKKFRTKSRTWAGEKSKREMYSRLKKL
The experiment in a line: Inhibition of human recombinant non-tyrosine phosphatase CDC25A (3-O-methylfluorescein phosphate). Format: biochemical. As to the method:
(§2) For the inhibition assay of non-tyrosine phosphatases, human recombinant proteins were used (Sigma-Aldrich). The reactions were performed in black opaque 384-well microplates (PerkinElmer). To the solution of the tested complexes, an equal volume of a test solution of phosphatase was added. CDC25A were diluted in reaction buffer to the final concentration of 400 ng/mL as for tyrosine phosphatases (described in the section above), and PPA2 (final 0.5 U/mL) was diluted in 50 mM Tris-HCl, 0.05% Tween-20, and 125 µg/mL protease-free bovine serum albumin (pH 7.0). These solutions were dispensed using an automated injector. After 10 min, a solution of phosphate 6,8-difluoro-4-methyl (DiFMUP; Thermo Fisher Scientific) was added for the PPA2 sample until the final concentration 0.1 mM. For CDC25A samples, 3-O-methylfluorescein phosphate for the final concentration of 0.2 mM was added. Samples were incubated for 180 min at 23 °C, and then the measurements of fluorescence intensity (excitation 355 and emission 560 nm) were performed on a multifunctional plate reader POLARstar Omega (BMG Labtech). Assays were performed in triplicate. The results were expressed as percent of inhibition of untreated control (enzyme with vehicle solvent only).

The target of a further series is T4, SHP1 (Homo sapiens, UniProt P29350).
T4 construct: purchased Sigma-Aldrich
T4 sequence (P29350 whole entry): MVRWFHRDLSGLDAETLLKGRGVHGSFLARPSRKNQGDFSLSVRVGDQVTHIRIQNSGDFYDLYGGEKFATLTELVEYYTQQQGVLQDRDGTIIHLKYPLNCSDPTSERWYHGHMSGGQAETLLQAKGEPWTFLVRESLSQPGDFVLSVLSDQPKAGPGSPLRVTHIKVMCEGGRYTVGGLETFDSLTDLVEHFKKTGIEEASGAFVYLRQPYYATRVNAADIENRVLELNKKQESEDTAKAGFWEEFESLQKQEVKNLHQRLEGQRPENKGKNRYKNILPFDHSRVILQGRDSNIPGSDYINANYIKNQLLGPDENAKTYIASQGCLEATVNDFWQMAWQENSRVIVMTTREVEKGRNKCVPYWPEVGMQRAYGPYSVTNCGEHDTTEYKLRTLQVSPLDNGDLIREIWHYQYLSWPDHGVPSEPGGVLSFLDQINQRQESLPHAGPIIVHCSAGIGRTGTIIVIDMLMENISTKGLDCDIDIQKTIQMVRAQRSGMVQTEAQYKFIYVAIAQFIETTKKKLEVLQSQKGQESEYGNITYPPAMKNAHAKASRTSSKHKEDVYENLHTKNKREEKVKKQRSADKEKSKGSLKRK
The series can be described thus: Inhibition of human recombinant tyrosine phosphatase SHP1 (DiFMUP fluorescence). Format: biochemical. The conditions noted are these: for Inhibition of SHP1, percentage of inhibition of the control: 1 µM, control solvent only, SD did not exceed 6%. As to the method:
as §1

A further series deals with PP2A (Homo sapiens, UniProt P67775). The series can be described thus: Inhibition of human recombinant non-tyrosine phosphatase PP2A (DiFMUP). In kind it is biochemical. As to the method:
as §2

A further series has as its target T5, SHP2 (Homo sapiens, UniProt Q06124).
T5 construct: purchased Sigma-Aldrich
T5 sequence (Q06124 1-593): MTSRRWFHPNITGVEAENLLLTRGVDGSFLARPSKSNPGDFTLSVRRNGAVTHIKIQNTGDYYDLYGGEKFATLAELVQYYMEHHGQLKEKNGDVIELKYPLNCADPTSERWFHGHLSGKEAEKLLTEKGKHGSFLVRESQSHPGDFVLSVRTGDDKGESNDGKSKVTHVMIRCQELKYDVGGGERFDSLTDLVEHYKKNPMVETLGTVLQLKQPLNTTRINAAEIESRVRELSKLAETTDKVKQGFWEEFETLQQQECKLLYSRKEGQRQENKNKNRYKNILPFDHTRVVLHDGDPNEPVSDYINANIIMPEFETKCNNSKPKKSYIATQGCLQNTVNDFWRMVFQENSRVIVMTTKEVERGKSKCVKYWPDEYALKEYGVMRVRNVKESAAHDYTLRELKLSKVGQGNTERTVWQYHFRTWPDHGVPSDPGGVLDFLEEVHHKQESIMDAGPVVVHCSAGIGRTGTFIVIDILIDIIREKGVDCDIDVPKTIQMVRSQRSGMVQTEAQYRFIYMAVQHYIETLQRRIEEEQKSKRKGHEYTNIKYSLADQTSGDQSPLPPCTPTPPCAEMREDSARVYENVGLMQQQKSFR
The series can be described thus: Inhibition of human recombinant tyrosine phosphatase SHP2 (DiFMUP fluorescence). In kind it is biochemical. Particulars: 1 µM; control solvent only; SD did not exceed 6%. As to the method: as §1

For the next series, the system named is adipocytes 3T3-L1. The experiment in a line: Scintillation proximity assay, transport of [14C]-deoxy-D-glucose into adipocytes 3T3-L1. Particulars: 50 µM. In kind it is cell-based, mouse. As to the method:
Adipocytes 3T3-L1 cell line (ATCC CRL-11605) derived from fibroblasts from mouse embryo tissue were cultured according to standard protocol in DMEM medium supplemented with 10% bovine calf serum, 100 IU/mL penicillin, and […] streptomycin at 37 °C in 5% CO2. Cells were seeded in 96-well poly-D-lysine-coated plates and cultured to reach confluency.
Scintillation proximity assay (SPA) is a method to measure the real-time accumulation of radiolabeled substrates by adherent cells with no filtration needed. Radioactivity concentrated closer to the scintillator embedded in the plastic bottom of each well provides a stronger signal than the radiolabeled substrate in the culture medium. Uptake of radiolabeled 2-deoxy-D-[U-14C]-glucose was conducted based on previous descriptions.
Adipocytes were washed and the medium was changed to the basal medium. After 24 h incubation, the tested complexes were added. After 2 h incubation at 37 °C in 5% CO2, the medium was changed to DMEM medium without glucose, with 0.1% BSA free from fatty acid, […] L-glutamine, and […] pyruvate. The tested complexes were added again, and further incubation for 4 h was conducted.
For cells proceeded as above, 2-deoxy-D-[U-14C]-glucose (250–350 mCi/mmol, NEC720A, PerkinElmer) solution in KRB with a total activity of 0.03 mCi was added to each well. […] Non-specific radioactivity was subtracted from each result (cpm). Two independent experiments with triplicates were conducted.
Background: In a scintillation proximity assay essentially only radioactivity close to the scintillant gives light.

Sequence of PP2A (P67775 whole entry): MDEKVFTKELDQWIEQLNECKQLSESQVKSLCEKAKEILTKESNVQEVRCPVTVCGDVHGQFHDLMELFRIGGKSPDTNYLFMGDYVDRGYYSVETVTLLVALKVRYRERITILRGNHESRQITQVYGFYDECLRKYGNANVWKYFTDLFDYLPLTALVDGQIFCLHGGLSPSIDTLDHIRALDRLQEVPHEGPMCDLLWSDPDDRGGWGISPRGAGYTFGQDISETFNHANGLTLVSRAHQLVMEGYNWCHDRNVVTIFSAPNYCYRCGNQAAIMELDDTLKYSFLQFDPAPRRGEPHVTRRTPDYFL

For `CC(CC(=S)Nc1ccccc1)=NC(Cc1c[nH]c2ccccc12)C(=O)[O][V](=[O])([Cl])[Cl]` (stereo not shown) [VC054, [VOCl2(L1)]·1.5Et2O ·6.5HCl], the IC50 on LAR is 112 nM; on PTP1B (read-out: IC50 PTP1B), 141 nM; on PTP1B (read-out: IC50 for PTP1B) it was 140 nM. The “Inhibition of LAR, percentage of inhibition of the control” value on LAR stood at 67%. The “Cell viability of myocytes C2C12, % of the control” value in the series with myocytes C2C12 turned out to be 84 ± 8%. Further, at PTP1B, the “Inhibition of PTP1B, percentage of inhibition of the control” value is 78%. Moreover, the “Log IC50 ± SD PTP1B” value on PTP1B (logarithm of IC50) was −6.85 ± 0.01. Also, the “Inhibition of CDC25A, percentage inhibition of control ± SD” value worked out at 51 ± 2% on CDC25A (1 µM) and 65 ± 3% on CDC25A (10 µM). Besides, the “Inhibition of SHP1, percentage of inhibition of the control” value on SHP1 stood at 84%. The “Log IC50 ± SD SHP1” value on SHP1 (logarithm of IC50) was −7.56 ± 0.02. Moreover, the “Inhibition of PP2A, percentage inhibition of control ± SD” value at PP2A (1 µM) is reported as 41 ± 15%; on PP2A (10 µM), 75 ± 7%. The “Inhibition of SHP2, percentage of inhibition of the control” value on SHP2 is given as 87%.
For `O.[O]=[V]1[O]C(c2ccccc2O)=NN=Cc2cc(Br)ccc2[O]1.c1cnc2c(c1)ccc1cccnc12` [VC013, [VO(L6)(phen)]⋅H2O], the “Inhibition of LAR, percentage of inhibition of the control” value at LAR amounted to 66%. For the same compound, the “Inhibition of PTP1B, percentage of inhibition of the control” value on PTP1B is on record as 60%. Moreover, the “Inhibition of SHP1, percentage of inhibition of the control” value at SHP1 was 67%. In the series on adipocytes 3T3-L1, the “Transport of [14C]-deoxy-D-glucose into 3T3-L1 adipocytes, % of control” value is “statistically significant activity”. In addition, the “Inhibition of SHP2, percentage of inhibition of the control” value on SHP2 came to 74%.

A word on the IC50: it is the point on the concentration scale where inhibition reaches its midpoint.
